We go through one compound from patent US5506207A, “GNRH antagonists XIII” (The Salk Institute for Biological Studies, priority 1994, dated 1996).

Data set [1] concerns mature female Sprague-Dawley rats. As to the kind of experiment: examination of treated rats for tolerance and gelling at the point of injection. The format is in vivo, rat. Conditions: rats injected with peptide in bacteriostatic water.
Data set [2] can be described thus: solubility in aqueous buffers. It is filed as physicochemical. Conditions: pH from about 5 to about 7.

“Also recorded” adds a separate entry of the source. Square brackets hold non-standard residues; d marks the D form. Peptide text beside a SMILES is read from it. * marks the point of attachment. dPhe(4-NH2) = Nc1ccc(C[C@@H](N)C(=O)O)cc1; dPhe(4-Cl) = N[C@H](Cc1ccc(Cl)cc1)C(=O)O; Phe(4-NH2) = Nc1ccc(C[C@H](N)C(=O)O)cc1; d2Nal = N[C@H](Cc1ccc2ccccc2c1)C(=O)O; Lys(iPr) = CC(C)NCCCC[C@H](N)C(=O)O; d3Pal = N[C@H](Cc1cccnc1)C(=O)O; X1 = Nc1n[nH]c(NCC(=O)*)n1

As to `CC(=O)N[C@H](Cc1ccc2ccccc2c1)C(=O)N[C@H](Cc1ccc(Cl)cc1)C(=O)N[C@H](Cc1cccnc1)C(=O)N[C@@H](CO)C(=O)N[C@@H](Cc1ccc(NC(=O)CNc2nc(N)n[nH]2)cc1)C(=O)N[C@H](Cc1ccc(NC(=O)CNc2nc(N)n[nH]2)cc1)C(=O)N[C@@H](CC(C)C)C(=O)N[C@@H](CCCCNC(C)C)C(=O)N1CCC[C@H]1C(=O)N[C@H](C)C(N)=O` [Peptide No. 1, [Ac-β-D-2NAL^1, (4Cl)D-Phe^2, D-3PAL^3, Aph(Gly)(atz)^5, D-Aph(Gly)(atz)^6, ILys^8, D-Ala^10]-GnRH] (Ac-[d2Nal][dPhe(4-Cl)][d3Pal]S[Phe(4-NH2)](X1)[dPhe(4-NH2)](X1)L[Lys(iPr)]P[dA]-NH2), in data set [1], the “tolerance and gelling at the point of injection” value is “very well tolerated with no significant gelling at the point of injection being detectable; also recorded: resistance to in vivo gelling”. Further, the “solubility in aqueous buffers” value in data set [2] was “solubility in aqueous buffers at a pH of from about 5 to about 7”.
